Results on 16 compounds are retold here after PubChem BioAssay (NCI).

Where “and” joins values, the source holds several entries; their conditions need not be identical. Equal entries are not always repeated.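 Method: 48-hour compound exposure of cells in 96-well plates, five concentrations, linear interpolation of endpoints. GI50: concentration for 50% inhibition of growth. The concentration for full growth arrest is given as TGI.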 Where only a bound is given, the exact number is not on record here.

Holding throughout (experiment): inhibition of tumour cell growth, NCI panel, 48 h
The test system of test [1] is HOP-92 NSCLC.
For test [2], the system named is HT29 colon.
Test [3] has as its system SW-620 colon.
In test [4] the test system is SK-OV-3 ovarian.
The test system of test [5] is MCF7 breast.
The test system of test [6] is HCC-2998 colon.
Test [7] deals with NCI-H23 lung.
The subject of test [8] is RPMI-8226 leukemia.
Test [9] deals with SF-268 CNS.
The test system of test [10] is HOP-62 NSCLC.

As for `CCCCS(=O)c1sc2nc(-c3cccs3)cc(-c3ccccc3)c2c1N` (stereo unspecified), the GI50 in test [1] is 5.78 µM; in test [2], 20.6 µM; in test [3] it was 26 µM; in [4] it was 27.8 µM; in test [5] it was 10.4 µM; in test [6], 32 µM. The GI50 in test [7] is 19 µM; in test [8] it was 3.59 µM; in test [9], 23.3 µM; in test [10], 31.1 µM. The TGI is 66.1 µM in test [1]; above 100 µM in test [2]; above 100 µM in test [3]; 97.3 µM in test [4]; above 100 µM in test [5]; above 100 µM in [6]. Further, the TGI was above 100 µM in test [7], 23.7 µM in [8], above 100 µM in [9] and above 100 µM in [10].
As to `C=CCN(CC=C)C(=O)c1cc(C)nc2c1c(=O)n(-c1ccccc1)c(=O)n2CCCN1CCN(c2ccccc2OC)CC1`, the GI50 in test [1] is 4.57 µM; in [2], above 50 µM; in test [3] it was above 50 µM; in test [4], above 50 µM; in [5], above 50 µM; in test [6] it was above 50 µM. The GI50 in [7], in test [8], in [9] and in [10] was above 50 µM throughout. The TGI in test [1], in test [2], in test [3], in [4], in test [5] and in test [6] was above 50 µM throughout. Besides, the TGI in test [7], in test [8], in [9] and in test [10] was above 50 µM each time.
As to `CCOC(=O)/C(=C\c1cccc(C)c1)C(C)=O`, the TGI in test [1] was 34.8 µM; in test [2], above 100 µM; in [3], 27 µM; in [4] it was above 100 µM; in test [5], 35.4 µM; in test [6] it was 28.4 µM. The TGI in [7] was 39 µM; in [8], 32.2 µM; in test [9], 45.4 µM; in test [10], 96.1 µM.
With `CC(C)Cc1ccc(C(C)/C=C2\CCC(CN(C)C)C2=O)cc1` (stereo unspecified), the TGI in test [1] was 39.1 µM; in [2], 31.5 µM; in [3] it was 17.4 µM; in test [4], 36.5 µM; in test [5], 18 µM; in test [6], 31.3 µM. Also, the TGI in [7] is 34 µM; in test [8], 9.94 µM; in test [9], 25.5 µM; in test [10], 25 µM.
For the compound `CCN(CC)c1ccc2nc3ccc(=[N+](CC)CC)cc-3oc2c1`, the GI50 in test [1] was 1.31 µM; in test [2] it was 0.182 µM; in test [3], 0.0449 µM; in [4], 0.671 µM; in test [5], 0.029 µM; in [6], 0.395 µM. Further, the GI50 in [7] was 0.097 µM; in [8], 0.264 µM; in test [9], 0.184 µM; in test [10], 0.93 µM. Further, the TGI is 5.14 µM in test [1]; 2.67 µM in test [2]; above 100 µM in [3]; 4.75 µM in [4]; 0.276 µM in test [5]; 39.4 µM in test [6]. In addition, the TGI in [7] came to 1.27 µM; in [8], 20 µM; in [9], 31.2 µM; in test [10] it was 32.2 µM.
As for `CCO/C=C1\SC(=S)N(c2ccc(OCC)cc2)C1=O`, the TGI in test [1], in test [2], in [3], in [4], in test [5] and in test [6] was above 100 µM in each case. For the same compound, the TGI in [7], in test [8], in test [9] and in [10] was above 100 µM throughout.
Consider `Cc1noc(NC(=O)Nc2ccccc2F)c1C#N`, for which the TGI was above 100 µM in test [1]; above 37.7 µM in [2]; above 100 µM in test [3]; above 100 µM in test [4]; above 35.6 µM in test [5]; 3.8 µM in test [6]. Further, the TGI in test [7] was above 100 µM; in test [8], above 100 µM; in test [9], above 48.9 µM; in test [10], above 100 µM.
For `COc1cc2nnc3c4cccnc4[nH]c3c2cc1OC`, the GI50 was 0.771 µM and 0.212 µM in [1]; 1.81 µM and 1.34 µM in test [2]; 0.961 µM and 0.444 µM in test [3]; 8.47 µM and 2.29 µM in [4]; 0.836 µM and 0.34 µM in test [5]; 2.28 µM and 1.95 µM in [6]. Besides, the GI50 in [7] was 11.1 µM and 2.34 µM; in [8], 1.45 µM and 0.187 µM; in test [9], 1.48 µM and 0.535 µM; in test [10], 13.5 µM and 2.26 µM. Further, the TGI in test [3] was 50 µM and > 100 µM; in test [4], 36 µM and 9.24 µM; in [5], 10.9 µM and 2.82 µM; in [6], 13.6 µM and 3.79 µM; in test [7], 40.5 µM and 6.71 µM; in test [9], 12.9 µM and 4.53 µM. The TGI in test [10] was 37.1 µM and 5.61 µM.
Take `CNCc1ccc(-c2cc(-c3nc(-c4ccc(S(=O)(=O)C(C)C)cc4)cnc3N)on2)cc1`: the GI50 was 13.3 µM in [1]; 0.492 µM in [2]; 1.43 µM in test [3]; 6.57 µM in test [4]; 0.0946 µM in test [5]; 2.48 µM in test [6]. Besides, the GI50 is 0.676 µM in test [7], 1.31 µM in test [8], 1.41 µM in test [9] and 4.56 µM in test [10]. In addition, the TGI in test [1] was 30.6 µM; in test [2], 1.83 µM; in test [3], 3.78 µM; in test [4] it was 24.7 µM; in test [5] it was 1.82 µM; in test [6] it was 19.6 µM. Moreover, the TGI was 28.3 µM in test [7], 8.45 µM in test [8], 3.29 µM in test [9] and 22.6 µM in test [10].
Take `C#Cc1ccc(-n2c(/C=C/c3ccc(O)cc3)nc3ncccc3c2=O)cc1`: the GI50 in test [1] is 1.8 µM; in [2], 52.8 µM; in [3], 3.55 µM; in test [4], 3.38 µM; in test [5], 3.04 µM; in test [6] it was 25.7 µM. The GI50 is 5.52 µM in test [7], 3.41 µM in test [8], 5.24 µM in test [9] and 5.66 µM in test [10]. The TGI in test [1] was 17.1 µM; in test [2], above 100 µM; in test [3], above 100 µM; in test [4], 29.1 µM; in test [5], above 100 µM; in test [6], above 100 µM. The TGI in test [7] was above 100 µM; in test [8], above 100 µM; in test [9], 68 µM; in test [10], 55.7 µM.
Regarding `COc1ccccc1CNCCN1C(=O)c2ccc3c4c(ccc(c24)C1=O)C(=O)N(CCNCc1ccccc1OC)C3=O`, the GI50 in [1] was 1.71 µM; in test [2] it was 0.215 µM; in test [3], 0.235 µM; in test [4], 1.55 µM; in [5], 0.198 µM; in test [6], 0.182 µM. Moreover, the GI50 was 0.19 µM in test [7], 0.287 µM in [8], 0.269 µM in [9] and 0.221 µM in test [10]. Moreover, the TGI in test [1] is 4.38 µM; in test [2], 0.447 µM; in test [3], 0.591 µM; in [4], 3.15 µM; in [5] it was 0.492 µM; in [6] it was 0.354 µM. Besides, the TGI in test [7] worked out at 0.394 µM; in test [8], 0.955 µM; in test [9] it was 1.12 µM; in test [10], 0.603 µM.
In the case of `Cc1cc(Cl)nc(N(CCNc2ccnc3cc(Cl)ccc23)Cc2ccco2)n1`, the GI50 in test [1] is 1.2 µM; in test [2] it was 2.11 µM; in [3] it was 1.85 µM; in test [4], 2.56 µM; in [5], 1.69 µM; in test [6], 2.03 µM. Moreover, the GI50 in test [7] was 2.57 µM; in [8], 1.76 µM; in test [9], 3.22 µM; in test [10], 2.04 µM. The TGI in [1] was determined as 3.55 µM; in test [2], 6.83 µM; in [3] it was 4.45 µM; in test [4] it was 7.44 µM; in test [5], 3.36 µM; in test [6], 4.22 µM. For the same compound, the TGI in test [7] was determined as 9.65 µM; in test [8], 4.27 µM; in test [9], 13.2 µM; in [10], 4.79 µM.
Turning to `CC(=O)Oc1ccc(C2=Cc3ccc(OC(C)=O)cc3OC2C)cc1` (stereo unspecified), the GI50 in test [1] was 6.74 µM; in test [2] it was 20.7 µM; in test [3], 6.33 µM; in [4] it was 6.56 µM; in [5] it was 6.28 µM; in test [6] it was 11.1 µM. Also, the GI50 in test [7] is 5.3 µM; in [8], 0.59 µM; in [9], 3.44 µM; in [10], 6.07 µM. Besides, the TGI was above 100 µM in test [1]; above 100 µM in test [2]; 29.8 µM in test [3]; 67 µM in [4]; 52.3 µM in test [5]; 72 µM in [6]. In addition, the TGI was above 100 µM in test [7], 16 µM in test [8], 30.6 µM in test [9] and 57.2 µM in test [10].
On to `Nc1nccc(-c2c(-c3ccc(F)cc3)nn3cc(C(F)(F)F)ccc23)n1`, for which the GI50 in test [1] was 5.75 µM; in test [2] it was above 25 µM; in [3] it was above 25 µM; in [4], above 25 µM; in test [5], above 25 µM; in test [6], above 25 µM. Moreover, the GI50 is above 25 µM in test [7], above 25 µM in [8], above 25 µM in test [9] and above 21.9 µM in test [10]. In addition, the TGI in [1], in [2], in [3], in test [4], in [5] and in test [6] was above 25 µM in each case. The TGI in test [7], in [8], in [9] and in [10] was above 25 µM in each case.
Turning to `Cc1cccc(Cn2cc(CO)c3cnccc32)c1`, the GI50 was 7.88 µM in test [1]; 67.2 µM in test [2]; above 100 µM in [3]; above 100 µM in test [4]; 51.3 µM in test [5]; above 100 µM in test [6]. Also, the GI50 in test [7] is 19.2 µM; in test [8], 3.82 µM; in [9], above 100 µM; in [10] it was above 100 µM. Besides, the TGI is 79.4 µM in [1]; above 100 µM in [2]; above 100 µM in test [3]; above 100 µM in [4]; above 100 µM in [5]; above 100 µM in test [6]. For the same compound, the TGI was above 100 µM in test [7], 72.9 µM in test [8], above 100 µM in [9] and above 100 µM in [10].
With `CN(C)c1ccc(-c2cc(-c3ccc(Nc4nc(Nc5ccc(Cl)cc5)nc(Nc5ccc(Cl)cc5)n4)cc3)nc(N)c2C#N)cc1`, the TGI in test [1] is 2.93 µM; in test [2], above 100 µM; in test [3], 22.7 µM; in test [4], above 100 µM; in test [5], 47.7 µM; in test [6], above 100 µM. In addition, the TGI in [7] was above 100 µM; in test [8], 53.8 µM; in test [9], above 100 µM; in test [10], above 100 µM. The GI50 was 8.85 µM in test [2]; 5.6 µM in test [3]; above 100 µM in [4]; 2.38 µM in test [5]; 99.4 µM in test [6]; 30.5 µM in [7]. The GI50 is 0.864 µM in test [8], 40.3 µM in test [9] and above 100 µM in [10].
